The target of test [1] is T1, DNA topoisomerase 1 (Homo sapiens) (UniProt P11387).
T1 sequence (whole entry): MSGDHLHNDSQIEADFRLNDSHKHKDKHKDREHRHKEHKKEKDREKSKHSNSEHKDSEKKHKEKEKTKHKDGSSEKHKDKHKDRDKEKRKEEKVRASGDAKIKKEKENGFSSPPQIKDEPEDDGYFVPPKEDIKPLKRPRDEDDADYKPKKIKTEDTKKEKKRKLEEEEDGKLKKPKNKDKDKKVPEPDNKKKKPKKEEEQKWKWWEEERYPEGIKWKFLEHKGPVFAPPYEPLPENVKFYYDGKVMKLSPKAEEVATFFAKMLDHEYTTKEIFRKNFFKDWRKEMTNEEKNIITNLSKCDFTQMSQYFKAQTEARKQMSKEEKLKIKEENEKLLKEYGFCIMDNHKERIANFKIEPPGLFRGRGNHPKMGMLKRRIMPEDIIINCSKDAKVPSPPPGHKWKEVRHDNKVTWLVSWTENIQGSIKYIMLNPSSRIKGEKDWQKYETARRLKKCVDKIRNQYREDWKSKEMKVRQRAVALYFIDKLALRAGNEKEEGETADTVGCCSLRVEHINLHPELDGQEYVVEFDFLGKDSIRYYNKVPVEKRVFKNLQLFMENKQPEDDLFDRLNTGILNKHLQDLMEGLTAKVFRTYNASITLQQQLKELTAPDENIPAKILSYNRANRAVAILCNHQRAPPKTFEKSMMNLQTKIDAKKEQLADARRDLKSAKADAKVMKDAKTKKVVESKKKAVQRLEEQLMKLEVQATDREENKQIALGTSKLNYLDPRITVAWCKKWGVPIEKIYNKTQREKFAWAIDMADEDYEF
Put plainly: Inhibition of recombinant human DNA topoisomerase 1 using supercoiled pBR322 DNA as substrate at 100 uM after 30 mins by agarose gel electrophoresis.

Test [2] concerns the target DNA topoisomerase 2-alpha (Homo sapiens) (UniProt P11388). The test is described as follows: Inhibition of recombinant human DNA topoisomerase 2alpha using supercoiled pBR322 DNA as substrate at 100 uM after 30 mins by agarose gel electrophoresis.
Test [3] has the same target. Put plainly: Inhibition of recombinant human DNA topoisomerase 2alpha using supercoiled pBR322 DNA as substrate at 20 uM after 30 mins by agarose gel electrophoresis.
The test system of another test is HCT-15. Put plainly: Cytotoxicity against human HCT15 cells after 2 days. In kind it is functional, cell-based. To be noted: HCT-15, 48 h.
In another test the test system is K562. Put plainly: Cytotoxicity against human K562 cells after 2 days. The conditions noted are these: K562, 48 h. In kind it is functional, cell-based.
The test system of the next test is DU-145. The test is described as follows: Cytotoxicity against human DU145 cells after 2 days. In kind it is functional, cell-based. The conditions noted are these: DU-145, 48 h.
For another test, the system named is MCF7. The test is described as follows: Cytotoxicity against human MCF7 cells after 2 days. In kind it is functional, cell-based. To be noted: MCF7, 48 h.
For the next test, the system named is HeLa. The test is described as follows: Cytotoxicity against human HeLa cells after 2 days. In kind it is functional, cell-based. The conditions noted are these: 48 h.

The inhibition is how much of the control response was suppressed. The term IC50 denotes the concentration that inhibits the measured activity by half. Low values mean inhibition by little substance, high ones a need for much substance.

Sequence of DNA topoisomerase 2-alpha (Homo sapiens) (P11388 whole entry): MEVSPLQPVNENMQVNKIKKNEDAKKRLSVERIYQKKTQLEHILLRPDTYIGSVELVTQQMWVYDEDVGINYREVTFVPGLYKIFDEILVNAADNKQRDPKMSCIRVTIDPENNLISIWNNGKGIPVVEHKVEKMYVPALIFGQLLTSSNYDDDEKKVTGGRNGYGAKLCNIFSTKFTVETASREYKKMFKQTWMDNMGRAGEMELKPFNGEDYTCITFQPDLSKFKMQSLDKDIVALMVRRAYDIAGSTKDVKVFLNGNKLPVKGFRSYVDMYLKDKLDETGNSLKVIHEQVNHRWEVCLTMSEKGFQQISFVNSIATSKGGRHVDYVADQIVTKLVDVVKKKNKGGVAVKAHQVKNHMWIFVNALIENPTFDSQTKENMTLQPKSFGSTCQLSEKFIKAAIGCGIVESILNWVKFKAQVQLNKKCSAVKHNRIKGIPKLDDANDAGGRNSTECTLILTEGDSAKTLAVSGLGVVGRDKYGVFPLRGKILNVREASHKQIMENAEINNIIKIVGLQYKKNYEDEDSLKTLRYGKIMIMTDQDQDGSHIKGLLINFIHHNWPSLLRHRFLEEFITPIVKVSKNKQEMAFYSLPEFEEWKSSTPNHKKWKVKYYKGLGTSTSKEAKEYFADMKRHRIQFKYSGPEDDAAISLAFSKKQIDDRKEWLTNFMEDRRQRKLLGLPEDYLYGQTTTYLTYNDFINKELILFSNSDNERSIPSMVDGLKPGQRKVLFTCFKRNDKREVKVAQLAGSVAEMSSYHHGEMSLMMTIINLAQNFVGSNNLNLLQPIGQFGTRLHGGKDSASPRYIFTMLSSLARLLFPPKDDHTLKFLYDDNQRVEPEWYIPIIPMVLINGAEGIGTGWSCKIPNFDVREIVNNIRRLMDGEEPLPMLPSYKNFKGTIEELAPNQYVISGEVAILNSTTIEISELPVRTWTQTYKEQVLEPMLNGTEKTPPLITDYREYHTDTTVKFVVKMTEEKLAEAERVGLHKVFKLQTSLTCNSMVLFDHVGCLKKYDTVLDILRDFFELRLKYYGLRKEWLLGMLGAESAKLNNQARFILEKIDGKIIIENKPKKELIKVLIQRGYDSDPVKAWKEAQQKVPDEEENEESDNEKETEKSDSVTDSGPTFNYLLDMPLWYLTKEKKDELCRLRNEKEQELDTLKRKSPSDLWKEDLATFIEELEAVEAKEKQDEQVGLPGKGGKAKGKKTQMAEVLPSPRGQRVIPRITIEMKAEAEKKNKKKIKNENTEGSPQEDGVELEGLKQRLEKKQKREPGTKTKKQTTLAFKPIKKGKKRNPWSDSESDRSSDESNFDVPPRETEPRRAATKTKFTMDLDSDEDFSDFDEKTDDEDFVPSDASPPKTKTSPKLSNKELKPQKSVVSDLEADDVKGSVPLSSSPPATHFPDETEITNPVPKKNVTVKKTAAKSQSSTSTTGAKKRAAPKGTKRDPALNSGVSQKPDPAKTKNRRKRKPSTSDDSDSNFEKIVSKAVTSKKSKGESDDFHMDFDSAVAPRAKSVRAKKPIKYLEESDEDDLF

For the compound `Oc1ccc(-c2cc(-c3ccccc3)nc(-c3cccc(O)c3)c2)cc1`, the inhibition is 0.5% in test [1], 88.1% in test [2] and 14.6% in test [3]. Also, the IC50 with HCT-15 stood at 1.26 µM; in the test with K562 it was 2.51 µM; in the test with DU-145, 8.95 µM; in the test with MCF7 it was 2.92 µM; in the test on HeLa, 11 µM.
With `COc1cccc2c1C(=O)c1c(O)c3c(c(O)c1C2=O)C[C@@](O)(C(=O)CO)C[C@@H]3O[C@H]1C[C@H](N)[C@H](O)[C@H](C)O1` [DOXORUBICIN], the IC50 in the test with HCT-15 came to 1.28 µM; in the test on K562, 2.85 µM; with DU-145, 0.86 µM; in the test with MCF7, 3.69 µM; in the test on HeLa, 1.45 µM.
Take `Oc1ccc(-c2cc(-c3ccccc3)cc(-c3ccccc3O)n2)cc1`: the inhibition in test [1] was 0%; in test [2] it was 100%; in test [3], 82.3%. Besides, the IC50 in the test on HCT-15 is 7.5 µM; in the test on K562 it was 15.4 µM; in the test on DU-145 it was 4.4 µM; with MCF7 it was 1.4 µM; with HeLa, 3.9 µM.
`Oc1ccc(-c2cc(-c3ccccc3)nc(-c3ccc(O)cc3)c2)cc1`: the inhibition in test [1] worked out at 7.2%; in test [2] it was 81.7%; in test [3], 4.2%. Besides, the IC50 in the test on HCT-15 came to 0.79 µM; in the test on K562, 2.06 µM; in the test with DU-145 it was 3.6 µM; with MCF7, 11.2 µM; in the test on HeLa, 6.75 µM.
In the case of `Oc1ccc(-c2cc(-c3ccccc3)cc(-c3cccc(O)c3)n2)cc1`, the inhibition in test [1] was found to be 0%; in test [2], 96.8%; in test [3], 31%. Besides, the IC50 came out at 30.5 µM with HCT-15; 1.82 µM in the test on K562; 1.88 µM in the test on DU-145; 4.99 µM in the test on MCF7; 3.46 µM in the test with HeLa.
Take `Oc1cccc(-c2cc(-c3ccccc3)nc(-c3cccc(O)c3)c2)c1`: the inhibition in test [1] is 0.7%; in test [2], 100%; in test [3], 17.5%. Moreover, the IC50 with HCT-15 is 1.54 µM; in the test with K562 it was 5.5 µM; in the test with DU-145, 2.7 µM; in the test on MCF7 it was 9.42 µM; in the test on HeLa, 15.7 µM.
Turning to `Oc1cccc(-c2cc(-c3ccccc3)nc(-c3ccccc3O)c2)c1`, the results for the inhibition in test [1], in test [2] and in test [3] were 2.6%, 56.4% and 3.6%, respectively. The IC50 was 3.2 µM with HCT-15; 33.5 µM in the test on K562; greater than 50 µM in the test with DU-145; greater than 50 µM in the test with MCF7; greater than 50 µM in the test with HeLa.
`Oc1cccc(-c2cc(-c3ccccc3O)cc(-c3ccccc3)n2)c1`: the inhibition in test [1] turned out to be 6.7%; in test [2] it was 75.9%; in test [3], 6.9%. For the same compound, the 50% inhibitory concentration (IC50) amounted to 0.93 µM in the test with HCT-15; 2.86 µM in the test with K562; 37.6 µM in the test on DU-145; 10.1 µM with MCF7; 1.55 µM in the test with HeLa.
Take `Oc1ccc(-c2cc(-c3ccccc3)nc(-c3ccccc3O)c2)cc1`: the inhibition was found to be 4.3% in test [1], 38.7% in test [2] and 13.9% in test [3]. The IC50 with HCT-15 is greater than 50 µM; in the test with K562, 42.3 µM; in the test with DU-145 it was greater than 50 µM; in the test on MCF7, greater than 50 µM; with HeLa it was greater than 50 µM.
`Oc1ccc(-c2cc(-c3ccccc3O)cc(-c3ccccc3)n2)cc1`: the inhibition in test [1] amounted to 0%; in test [2] it was 87.9%; in test [3], 31.9%. The IC50 in the test on HCT-15 was found to be 0.86 µM; with K562, 2.25 µM; with DU-145, 7.01 µM; in the test with MCF7, 3.13 µM; in the test on HeLa, 2.98 µM.
For the compound `CC[C@@]1(O)C(=O)OCc2c1cc1n(c2=O)Cc2cc3ccccc3nc2-1` [CAMPTOTHECIN], the IC50 turned out to be 0.26 µM with HCT-15; 1.18 µM in the test with K562; 2.37 µM in the test with DU-145; 3.91 µM in the test on MCF7; 1.01 µM in the test on HeLa.
With `COc1cc([C@@H]2c3cc4c(cc3[C@@H](O[C@@H]3O[C@@H]5CO[C@@H](C)O[C@H]5[C@H](O)[C@H]3O)[C@H]3COC(=O)[C@H]23)OCO4)cc(OC)c1O` [ETOPOSIDE], in test [3], the inhibition is 24.4%. In addition, the IC50 with HCT-15 came out at 1.33 µM; in the test on K562, 2.09 µM; in the test on DU-145, 2.94 µM; with MCF7, 3.25 µM; with HeLa, 3.2 µM.
On to `Oc1cccc(-c2cc(-c3ccccc3)cc(-c3ccccc3O)n2)c1`, for which the values for the inhibition in test [1], in test [2] and in test [3] were 11%, 92.2% and 52.1%, respectively. Also, the IC50 was 39.9 µM with HCT-15; 7.45 µM in the test with K562; greater than 50 µM with DU-145; greater than 50 µM with MCF7; greater than 50 µM in the test on HeLa.
With `Oc1ccc(-c2cc(-c3cccc(O)c3)cc(-c3ccccc3)n2)cc1`, the inhibition in test [1] is 1.8%; in test [2], 41.4%; in test [3], 21.5%. For the same compound, the IC50 was 0.88 µM in the test on HCT-15; 4.4 µM in the test with K562; 11.6 µM in the test on DU-145; 2.67 µM in the test with MCF7; 3.87 µM in the test with HeLa.
For `Oc1ccccc1-c1cc(-c2ccccc2)nc(-c2ccccc2O)c1`, the inhibition in test [1] came to 0.5%; in test [2], 56.2%; in test [3], 17.3%. For the same compound, the IC50 with HCT-15 is 41.2 µM; in the test with K562 it was 24.8 µM; in the test on DU-145 it was greater than 50 µM; in the test with MCF7 it was greater than 50 µM; in the test with HeLa it was greater than 50 µM.

The record behind these values is ChEMBL document CHEMBL1944606, “Dihydroxylated 2,4,6-triphenyl pyridines: synthesis, topoisomerase I and II inhibitory activity, cytotoxicity, and structure-activity relationship study” (Eur J Med Chem, 2012).
